# Reference: ChEMBL document CHEMBL2016462, “Inhibitors of Ketohexokinase: Discovery of Pyrimidinopyrimidines with Specific Substitution that Complements the ATP-Binding Site” (ACS Med Chem Lett, 2011)
# Legend:
# Ketohexokinase [1] = molecular target: T1, Ketohexokinase (Homo sapiens, UniProt P50053); test: Inhibition of human ketohexokinase isoform C expressed in Escherichia coli BL21 (DE3) cells using D-fructose as substrate after 12 to 15 mins by fluorescence polarization assay
# T1 sequence (P50053 whole entry): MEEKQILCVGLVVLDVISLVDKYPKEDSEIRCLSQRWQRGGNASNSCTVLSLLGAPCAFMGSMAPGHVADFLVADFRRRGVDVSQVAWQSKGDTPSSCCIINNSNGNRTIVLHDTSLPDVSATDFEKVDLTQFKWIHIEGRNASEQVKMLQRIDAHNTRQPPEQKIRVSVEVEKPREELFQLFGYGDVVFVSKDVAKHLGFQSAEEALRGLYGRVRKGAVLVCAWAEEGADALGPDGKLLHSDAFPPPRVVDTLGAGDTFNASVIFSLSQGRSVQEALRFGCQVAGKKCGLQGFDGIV
# Ketohexokinase [2] = molecular target: T1, Ketohexokinase; test: Inhibition of ketokinase isoform C in human HepG2 cells assessed as levels of fructose-1-phosphate preincubated for 30 mins followed by substrate addition measured after 3 hrs by LC-MS analysis; format: cell-based
IC50 (Ketohexokinase [1]) [µM],IC50 (Ketohexokinase [2]) [µM],SMILES
1.5,–,Cc1ccccc1Nc1nc(N2CCN(C)CC2)nc2c(NCC3CC3)ncnc12
> 7,–,Cc1ccccc1Nc1nc(N2CCOCC2)nc2c(NCC3CC3)ncnc12
0.07,–,Cc1ccccc1Nc1nc(N2CCC(CN)CC2)nc2c(NCC3CC3)ncnc12
0.2,–,Cc1ccccc1Nc1nc(N2CCC(N)CC2)nc2c(NCC3CC3)ncnc12
0.018,–,CSc1ccccc1Nc1nc(N2CCNCC2)nc2c(NCC3CCC3)ncnc12
0.05,–,CSc1ccccc1Nc1nc(N2CCNCC2)nc2c(NCCC3CC3)ncnc12
0.018,–,CSc1ccccc1Nc1nc(N2CCC[C@@H](N)C2)nc2c(NCC3CC3)ncnc12
0.023,–,CSc1ccccc1Nc1nc(N2CCC[C@H](N)C2)nc2c(NCC3CC3)ncnc12
0.01,–,CSc1ccccc1Nc1nc(N2CCC(CN)CC2)nc2c(NCC3CC3)ncnc12
0.03,0.59,CSc1ccccc1Nc1nc(N2CC(CN)C2)nc2c(NCC3CC3)ncnc12
–,0.36,CSc1ccccc1Nc1nc(N2CC3(CNC3)C2)nc2c(NCC3CC3)ncnc12
0.13,–,CNCCN(C)c1nc(Nc2ccccc2SC)c2ncnc(NCC3CC3)c2n1
0.14,–,CSc1ccccc1Nc1nc(N2CCC(CN(C)C)CC2)nc2c(NCC3CC3)ncnc12
0.11,–,CSc1ccccc1Nc1nc(N2CCN(C)CC2)nc2c(NCC3CC3)ncnc12

# The remaining lines, values behind:
SMILES,IC50 (Ketohexokinase [1]) [µM],IC50 (Ketohexokinase [2]) [µM]
C#CCNc1ncnc2c(Nc3ccccc3C)nc(N3CCNCC3)nc12,0.3,–
Cc1ccccc1Nc1nc(N2CCNCC2)nc2c(NCc3ccccc3)ncnc12,0.4,–
Cc1ccccc1Nc1nc(N2CCNCC2)nc2c(NCc3cccs3)ncnc12,0.3,–
Cc1ccccc1Nc1nc(N2CCNCC2)nc2c(NCc3nccs3)ncnc12,0.06,–
Cc1ccccc1Nc1nc(N2CCCNCC2)nc2c(NCC3CC3)ncnc12,0.3,–
Cc1ccccc1Nc1nc(NC2CCNCC2)nc2c(NCC3CC3)ncnc12,0.71,–
COCCNc1ncnc2c(Nc3ccccc3SC)nc(N3CCNCC3)nc12,0.007,0.14
CSc1ccccc1Nc1nc(N2CCNCC2)nc2c(NCc3cccs3)ncnc12,0.03,–
CSc1ccccc1Nc1nc(N2CCNCC2)nc2c(NCc3nccs3)ncnc12,0.016,0.27
CSc1ccccc1Nc1nc(N2CCNCC2)nc2c(NCc3ccccn3)ncnc12,0.0098,0.27
CSc1ccccc1Nc1nc(N2CCNCC2)nc2c(N)ncnc12,0.0071,0.078
